What all share (format): cell-based
The target in experiment [1] is T1, GLP-1 receptor (Homo sapiens, UniProt P43220). The experiment in a line: HitHunter cAMP assay, GLP-1 receptor. To be noted: for Emax: read-out: Emax GLP-1R. On the technique in general: Cyclic AMP is a second messenger, typically raised through Gs and lowered through Gi signalling.
For experiment [2], the target named is T1, GLP-1 receptor. The experiment can be described thus: PathHunter β-arrestin assay, GLP-1 receptor. Particulars: β-arrestin-2 recruitment, PathHunter CHO-K1 GLP1R β-Arrestin Cell Line, 90 min at 37° C.; normalized to GLP-1; read-out: GLP-1R β Arrestin EC50. Also on record: host or cells: PathHunter CHO-K1 GLP1R β-Arrestin Cell Line. (In general: Recruitment of arrestin is a read-out of receptor activation apart from second messengers.)

The target of a further experiment is T2, GIP receptor (Homo sapiens, UniProt P48546).
T2 sequence (P48546 22-466): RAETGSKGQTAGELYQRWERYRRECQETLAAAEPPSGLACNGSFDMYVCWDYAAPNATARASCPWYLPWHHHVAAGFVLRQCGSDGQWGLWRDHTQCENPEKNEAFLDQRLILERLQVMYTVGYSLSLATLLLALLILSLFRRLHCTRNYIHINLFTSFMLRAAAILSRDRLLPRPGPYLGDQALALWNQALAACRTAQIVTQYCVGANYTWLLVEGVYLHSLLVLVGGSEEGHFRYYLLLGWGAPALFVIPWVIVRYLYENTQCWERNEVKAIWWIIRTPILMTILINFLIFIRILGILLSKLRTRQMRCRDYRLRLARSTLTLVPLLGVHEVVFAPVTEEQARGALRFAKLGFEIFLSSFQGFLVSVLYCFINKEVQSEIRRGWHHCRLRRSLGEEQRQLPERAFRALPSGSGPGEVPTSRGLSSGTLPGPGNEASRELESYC
The experiment in a line: HitHunter cAMP assay, GIP receptor. Particulars: for Emax: read-out: Emax GIP-1R.

The mark [3] stands for this setting: CHO cells, cAMP, normalized to maximum signal from GLP-1 (high) and DMSO (low).
Setting [4] is: CHO cells, cAMP, normalized to maximum signal from GIP (high) and DMSO (low).

Here are results for five molecules from patent publication US12281149B2, “Modulators of G-protein coupled receptors” (priority 2021, dated 2025).

Read-outs that look alike come from different tables or passages of the source. *1 amine or outer side, *2 acyl side, *3 side chain or, on linkers, in order; H or OH if unused. Where a SMILES comes first, the peptide text is derived from it. Side-chain parts run from the residue outwards. [ ]: non-standard residue; d: D form. The star is where a group is joined. Isobutyryl(2-(3-CN-5-F-Ph)) = CC(C)(C(=O)*)c1cc(F)cc(C#N)c1; C20 diacid = O=C(O)CCCCCCCCCCCCCCCCCCC(=O)*; γGlu = O=C(O)[C@H](CCC(=O)[*:2])N[*:1]; NH(3-MeOPh) = COc1cccc(N*)c1; NH(2-ClPh) = Clc1ccccc1N*; X10 = Clc1cccc(N*)c1Cl; AEEA = NCCOCCOCC(=O)O; Aib = CC(C)(N)C(=O)O; CO = O=C([*:1])[*:2]; X12 = Fc1cccc(N*)c1; GABA = NCCCC(=O)O; βAla = NCCC(=O)O

T1 sequence (P43220 24-463): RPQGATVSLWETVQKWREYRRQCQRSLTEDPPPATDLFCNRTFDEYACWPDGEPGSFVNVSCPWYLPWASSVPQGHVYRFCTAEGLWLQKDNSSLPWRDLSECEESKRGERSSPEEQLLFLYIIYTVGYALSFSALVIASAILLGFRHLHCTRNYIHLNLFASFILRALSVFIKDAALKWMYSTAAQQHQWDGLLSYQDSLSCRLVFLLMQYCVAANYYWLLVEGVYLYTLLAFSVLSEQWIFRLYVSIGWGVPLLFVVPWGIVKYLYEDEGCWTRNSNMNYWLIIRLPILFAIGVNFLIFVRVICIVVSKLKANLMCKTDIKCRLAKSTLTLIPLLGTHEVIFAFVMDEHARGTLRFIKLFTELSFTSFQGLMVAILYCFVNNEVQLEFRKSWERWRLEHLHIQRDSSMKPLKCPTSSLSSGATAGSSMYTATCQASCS

For `CC[C@H](C)[C@H](NC(=O)[C@H](CC(C)C)NC(=O)[C@H](Cc1c[nH]c2ccccc12)NC(=O)[C@H](CCC(N)=O)NC(=O)[C@@H](NC(=O)[C@H](Cc1ccccc1)NC(=O)[C@H](C)NC(=O)[C@H](CCCCNC(=O)COCCOCCNC(=O)COCCOCCNC(=O)CC[C@H](NC(=O)CCCCCCCCCCCCCCCCCCC(=O)O)C(=O)O)NC(=O)[C@H](CCC(N)=O)NC(=O)[C@H](C)NC(=O)[C@@H](NC(=O)[C@H](CCCNC(=N)N)NC(=O)[C@H](CC(=O)O)NC(=O)[C@H](CC(C)C)NC(=O)C(C)(C)NC(=O)[C@@H](NC(=O)[C@H](CO)NC(=O)[C@H](Cc1ccc(O)cc1)NC(=O)[C@H](CC(=O)O)NC(=O)[C@H](CO)NC(=O)[C@@H](NC(=O)[C@H](Cc1ccccc1)NC(=O)[C@@H](NC(=O)CNC(=O)[C@H](CCC(=O)O)NC(=O)CCNC(=O)C(C)(C)c1cc(F)cc(C#N)c1)[C@@H](C)O)[C@@H](C)O)[C@@H](C)CC)[C@@H](C)CC)C(C)C)C(=O)N[C@@H](C)C(=O)NCC(=O)NCC(=O)N1CCC[C@H]1C(=O)N[C@@H](CO)C(=O)N[C@@H](CO)C(=O)NCC(=O)N[C@@H](C)C(=O)N1CCC[C@H]1C(=O)N1CCC[C@H]1C(=O)N1CCC[C@H]1C(=O)N[C@@H](CO)C(N)=O` [Compound 242] ({Isobutyryl(2-(3-CN-5-F-Ph))-βAla}-EGTFTSDYSI[Aib]LDRIAQK([AEEA-AEEA-γGlu-C20 diacid])AFVQWLIAGGPSSGAPPPS-NH2), the EC50 (commonly the concentration that produces a half-maximal response) on GLP-1 receptor [1] (CHO cells stably expressing human GLP-1 receptor, cAMP accumulation, 30 min, read-out: EC50 GLP-1R) is 0.1 to 1 nM; on GLP-1 receptor [2] it was over 1000 nM; at GIP receptor (CHO cells stably expressing GIP receptor, cAMP accumulation, 30 min, read-out: EC50 GIP-1R), 10 to 100 nM. The results for the maximum response (Emax) at GLP-1 receptor [1] (setting [3]) and on GIP receptor (setting [4]) were 99% and 115%, respectively.

Consider `CC[C@H](C)[C@H](NC(=O)[C@H](CC(C)C)NC(=O)[C@H](Cc1c[nH]c2ccccc12)NC(=O)[C@H](CCC(N)=O)NC(=O)[C@@H](NC(=O)[C@H](Cc1ccccc1)NC(=O)[C@H](C)NC(=O)[C@H](CCCCNC(=O)COCCOCCNC(=O)COCCOCCNC(=O)CC[C@H](NC(=O)CCCCCCCCCCCCCCCCCCC(=O)O)C(=O)O)NC(=O)[C@H](CCC(N)=O)NC(=O)[C@H](C)NC(=O)[C@@H](NC(=O)[C@H](CCCCN)NC(=O)[C@H](CC(=O)O)NC(=O)[C@H](CC(C)C)NC(=O)C(C)(C)NC(=O)[C@@H](NC(=O)[C@H](CO)NC(=O)[C@H](Cc1ccc(O)cc1)NC(=O)[C@H](CC(=O)O)NC(=O)[C@H](CO)NC(=O)[C@@H](NC(=O)[C@H](Cc1ccccc1)NC(=O)[C@@H](NC(=O)CNC(=O)[C@H](CCC(=O)O)NC(=O)CCCNC(=O)CNC(=O)Nc1ccccc1Cl)[C@@H](C)O)[C@@H](C)O)[C@@H](C)CC)[C@@H](C)CC)C(C)C)C(=O)N[C@@H](C)C(=O)NCC(=O)NCC(=O)N1CCC[C@H]1C(=O)N[C@@H](CO)C(=O)N[C@@H](CO)C(=O)NCC(=O)N[C@@H](C)C(=O)N1CCC[C@H]1C(=O)N1CCC[C@H]1C(=O)N1CCC[C@H]1C(=O)N[C@@H](CO)C(N)=O` [Compound 259] ({NH(2-ClPh)-CO}-G[GABA]EGTFTSDYSI[Aib]LDKIAQK([AEEA-AEEA-γGlu-C20 diacid])AFVQWLIAGGPSSGAPPPS-NH2; C-terminus assumed), for which the Emax at GLP-1 receptor [1] (CHO) and at GIP receptor (CHO) was 103% throughout.

Take `CC[C@H](C)[C@H](NC(=O)[C@H](CC(C)C)NC(=O)[C@H](Cc1c[nH]c2ccccc12)NC(=O)[C@H](CCC(N)=O)NC(=O)[C@@H](NC(=O)[C@H](Cc1ccccc1)NC(=O)[C@H](C)NC(=O)[C@H](CCCCNC(=O)COCCOCCNC(=O)COCCOCCNC(=O)CC[C@H](NC(=O)CCCCCCCCCCCCCCCCCCC(=O)O)C(=O)O)NC(=O)[C@H](CCC(N)=O)NC(=O)[C@H](C)NC(=O)[C@@H](NC(=O)[C@H](CCCCN)NC(=O)[C@H](CC(=O)O)NC(=O)[C@H](CC(C)C)NC(=O)C(C)(C)NC(=O)[C@@H](NC(=O)[C@H](CO)NC(=O)[C@H](Cc1ccc(O)cc1)NC(=O)[C@H](CC(=O)O)NC(=O)[C@H](CO)NC(=O)[C@@H](NC(=O)[C@H](Cc1ccccc1)NC(=O)[C@@H](NC(=O)CNC(=O)[C@H](CCC(=O)O)NC(=O)CCCNC(=O)CNC(=O)Nc1cccc(F)c1)[C@@H](C)O)[C@@H](C)O)[C@@H](C)CC)[C@@H](C)CC)C(C)C)C(=O)N[C@@H](C)C(=O)NCC(=O)NCC(=O)N1CCC[C@H]1C(=O)N[C@@H](CO)C(=O)N[C@@H](CO)C(=O)NCC(=O)N[C@@H](C)C(=O)N1CCC[C@H]1C(=O)N1CCC[C@H]1C(=O)N1CCC[C@H]1C(=O)N[C@@H](CO)C(N)=O` [Compound 260] ({X12-CO}-G[GABA]EGTFTSDYSI[Aib]LDKIAQK([AEEA-AEEA-γGlu-C20 diacid])AFVQWLIAGGPSSGAPPPS-NH2; C-terminus assumed): the maximum response (Emax) (as a rule, the greatest response seen or fitted, relative to the assay's reference) turned out to be 124% on GLP-1 receptor [1] (setting [3]) and 107% on GIP receptor (setting [4]).

For the molecule `CC[C@H](C)[C@H](NC(=O)[C@H](CC(C)C)NC(=O)[C@H](Cc1c[nH]c2ccccc12)NC(=O)[C@H](CCC(N)=O)NC(=O)[C@@H](NC(=O)[C@H](Cc1ccccc1)NC(=O)[C@H](C)NC(=O)[C@H](CCCCNC(=O)COCCOCCNC(=O)COCCOCCNC(=O)CC[C@H](NC(=O)CCCCCCCCCCCCCCCCCCC(=O)O)C(=O)O)NC(=O)[C@H](CCC(N)=O)NC(=O)[C@H](C)NC(=O)[C@@H](NC(=O)[C@H](CCCCN)NC(=O)[C@H](CC(=O)O)NC(=O)[C@H](CC(C)C)NC(=O)C(C)(C)NC(=O)[C@@H](NC(=O)[C@H](CO)NC(=O)[C@H](Cc1ccc(O)cc1)NC(=O)[C@H](CC(=O)O)NC(=O)[C@H](CO)NC(=O)[C@@H](NC(=O)[C@H](Cc1ccccc1)NC(=O)[C@@H](NC(=O)CNC(=O)[C@H](CCC(=O)O)NC(=O)CCCNC(=O)CNC(=O)Nc1cccc(OC)c1)[C@@H](C)O)[C@@H](C)O)[C@@H](C)CC)[C@@H](C)CC)C(C)C)C(=O)N[C@@H](C)C(=O)NCC(=O)NCC(=O)N1CCC[C@H]1C(=O)N[C@@H](CO)C(=O)N[C@@H](CO)C(=O)NCC(=O)N[C@@H](C)C(=O)N1CCC[C@H]1C(=O)N1CCC[C@H]1C(=O)N1CCC[C@H]1C(=O)N[C@@H](CO)C(N)=O` [Compound 261] ({NH(3-MeOPh)-CO}-G[GABA]EGTFTSDYSI[Aib]LDKIAQK([AEEA-AEEA-γGlu-C20 diacid])AFVQWLIAGGPSSGAPPPS-NH2; C-terminus assumed), the Emax was 106% at GLP-1 receptor [1] (setting [3]) and 107% at GIP receptor (setting [4]).

Consider `CC[C@H](C)[C@H](NC(=O)[C@H](CC(C)C)NC(=O)[C@H](Cc1c[nH]c2ccccc12)NC(=O)[C@H](CCC(N)=O)NC(=O)[C@@H](NC(=O)[C@H](Cc1ccccc1)NC(=O)[C@H](C)NC(=O)[C@H](CCCCNC(=O)COCCOCCNC(=O)COCCOCCNC(=O)CC[C@H](NC(=O)CCCCCCCCCCCCCCCCCCC(=O)O)C(=O)O)NC(=O)[C@H](CCC(N)=O)NC(=O)[C@H](C)NC(=O)[C@@H](NC(=O)[C@H](CCCCN)NC(=O)[C@H](CC(=O)O)NC(=O)[C@H](CC(C)C)NC(=O)C(C)(C)NC(=O)[C@@H](NC(=O)[C@H](CO)NC(=O)[C@H](Cc1ccc(O)cc1)NC(=O)[C@H](CC(=O)O)NC(=O)[C@H](CO)NC(=O)[C@@H](NC(=O)[C@H](Cc1ccccc1)NC(=O)[C@@H](NC(=O)CNC(=O)[C@H](CCC(=O)O)NC(=O)CCCNC(=O)CNC(=O)Nc1cccc(Cl)c1Cl)[C@@H](C)O)[C@@H](C)O)[C@@H](C)CC)[C@@H](C)CC)C(C)C)C(=O)N[C@@H](C)C(=O)NCC(=O)NCC(=O)N1CCC[C@H]1C(=O)N[C@@H](CO)C(=O)N[C@@H](CO)C(=O)NCC(=O)N[C@@H](C)C(=O)N1CCC[C@H]1C(=O)N1CCC[C@H]1C(=O)N1CCC[C@H]1C(=O)N[C@@H](CO)C(N)=O` [Compound 262] ({X10-CO}-G[GABA]EGTFTSDYSI[Aib]LDKIAQK([AEEA-AEEA-γGlu-C20 diacid])AFVQWLIAGGPSSGAPPPS-NH2; C-terminus assumed), for which the maximal response (Emax) on GLP-1 receptor [1] (CHO) came to 90%; on GIP receptor (CHO) it was 106%.
